Test results published in ChEMBL document CHEMBL2010748, “Structure-Activity Relationship Studies of HIV-1 Integrase Oligonucleotide Inhibitors” (ACS Med Chem Lett, 2011).

The compounds below were run against Human immunodeficiency virus type 1 integrase (Human immunodeficiency virus 1, UniProt Q7ZJM1) (assay: Inhibition of Human immunodeficiency virus 1 integrase 3'-processing activity expressed in Escherichia coli using 21-mer DNA and Mg2+ after 2 hrs by polyacrylamide gel electrophoresis).
Sequence of Human immunodeficiency virus type 1 integrase (Q7ZJM1 whole entry): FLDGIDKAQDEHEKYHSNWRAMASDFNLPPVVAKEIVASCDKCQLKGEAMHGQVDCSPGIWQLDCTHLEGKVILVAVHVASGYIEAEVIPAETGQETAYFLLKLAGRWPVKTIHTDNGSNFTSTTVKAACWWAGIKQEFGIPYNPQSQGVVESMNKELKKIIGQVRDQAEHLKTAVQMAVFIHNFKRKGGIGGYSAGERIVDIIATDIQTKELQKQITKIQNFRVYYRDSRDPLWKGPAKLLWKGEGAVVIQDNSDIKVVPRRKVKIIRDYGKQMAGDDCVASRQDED

| Compound | IC50 [µM] |
| --- | --- |
| Cc1cn([C@H]2C[C@H](OP(=O)(O)OC[C@H]3O[C@@H](n4cc(C)c(=O)[nH]c4=O)C[C@@H]3OP(=O)(O)OC[C@H]3O[C@@H](n4cc(C)c(=O)[nH]c4=O)C[C@@H]3OP(=O)(O)OC[C@H]3O[C@@H](n4cnc5c(=O)[nH]c(N)nc54)C[C@@H]3OP(=O)(O)OC[C@H]3O[C@@H](n4cc(C)c(=O)[nH]c4=O)C[C@@H]3OP(=O)(O)OC[C@H]3O[C@@H](n4cnc5c(=O)[nH]c(N)nc54)C[C@@H]3OP(=O)(O)OC[C@H]3O[C@@H](n4cc(C)c(=O)[nH]c4=O)C[C@@H]3O)[C@@H](COP(=O)(O)O[C@H]3C[C@H](n4cc(C)c(=O)[nH]c4=O)O[C@@H]3COP(=O)(O)O[C@H]3C[C@H](n4cc(C)c(=O)[nH]c4=O)O[C@@H]3COP(=O)(O)O[C@H]3C[C@H](n4cnc5c(=O)[nH]c(N)nc54)O[C@@H]3COP(=O)(O)O[C@H]3C[C@H](n4cnc5c(=O)[nH]c(N)nc54)O[C@@H]3COP(=O)(O)OCCCCCCNC(=O)c3cc(Cl)c(-c4c5cc(Cl)c(O)c(Cl)c5nc5c(Cl)c(O)c(Cl)cc45)c(C(=O)O)c3Cl)O2)c(=O)[nH]c1=O | 0.052 |
| Cc1cn([C@H]2C[C@H](OP(=O)(O)OC[C@H]3O[C@@H](n4cnc5c(=O)[nH]c(N)nc54)C[C@@H]3OP(=O)(O)OC[C@H]3O[C@@H](n4cc(C)c(=O)[nH]c4=O)C[C@@H]3OP(=O)(O)OC[C@H]3O[C@@H](n4cnc5c(=O)[nH]c(N)nc54)C[C@@H]3OP(=O)(O)OC[C@H]3O[C@@H](n4cc(C)c(=O)[nH]c4=O)C[C@@H]3O)[C@@H](COP(=O)(O)O[C@H]3CCO[C@@H]3COP(=O)(O)O[C@H]3CCO[C@@H]3COP(=O)(O)O[C@H]3CCO[C@@H]3COP(=O)(O)O[C@H]3CCO[C@@H]3COP(=O)(O)O[C@H]3CCO[C@@H]3COP(=O)(O)O[C@H]3CCO[C@@H]3COP(=O)(O)OCCCCCCNC(=O)c3cc(Cl)c(C(=O)O)c(-c4c5cc(Cl)c(=O)c(Cl)c-5oc5c(Cl)c(O)c(Cl)cc45)c3Cl)O2)c(=O)[nH]c1=O | 0.28 |
| CCCCCCCC/C=C\CCCCCCCC(=O)NCCCOCC(O)COP(=O)(O)O[C@@H]1C[C@@H](COP(=O)(O)O[C@H]2C[C@H](n3cc(C)c(=O)[nH]c3=O)O[C@@H]2COP(=O)(O)O[C@H]2C[C@H](n3cnc4c(=O)[nH]c(N)nc43)O[C@@H]2COP(=O)(O)O[C@H]2C[C@H](n3cc(C)c(=O)[nH]c3=O)O[C@@H]2COP(=O)(O)O[C@H]2C[C@H](n3cnc4c(=O)[nH]c(N)nc43)O[C@@H]2COP(=O)(O)O[C@H]2C[C@H](n3cc(C)c(=O)[nH]c3=O)O[C@@H]2COP(=O)(O)O[C@H]2C[C@H](n3cc(C)c(=O)[nH]c3=O)O[C@@H]2COP(=O)(O)O[C@H]2C[C@H](n3cc(C)c(=O)[nH]c3=O)O[C@@H]2COP(=O)(O)O[C@H]2C[C@H](n3cc(C)c(=O)[nH]c3=O)O[C@@H]2COP(=O)(O)O[C@H]2C[C@H](n3cc(C)c(=O)[nH]c3=O)O[C@@H]2COP(=O)(O)O[C@H]2C[C@H](n3cnc4c(=O)[nH]c(N)nc43)O[C@@H]2COP(=O)(O)O[C@H]2C[C@H](n3cnc4c(=O)[nH]c(N)nc43)O[C@@H]2CO)N(C(=O)CCCCCNC(=O)c2ccc(C(=O)O)c(-c3c4ccc(=O)cc-4oc4cc(O)ccc34)c2)C1 (some centres not stated) | 0.023 |
| CO[C@@H]1[C@H](O)[C@@H](COP(=O)(S)O[C@H]2[C@@H](OC)[C@H](n3cnc4c(=O)[nH]c(N)nc43)O[C@@H]2COP(=O)(S)O[C@H]2[C@@H](OC)[C@H](n3ccc(=O)[nH]c3=O)O[C@@H]2COP(=O)(S)O[C@H]2[C@@H](OC)[C@H](n3cnc4c(=O)[nH]c(N)nc43)O[C@@H]2COP(=O)(S)O[C@H]2[C@@H](OC)[C@H](n3ccc(=O)[nH]c3=O)O[C@@H]2COP(=O)(S)O[C@H]2[C@@H](OC)[C@H](n3ccc(=O)[nH]c3=O)O[C@@H]2COP(=O)(S)O[C@H]2[C@@H](OC)[C@H](n3ccc(=O)[nH]c3=O)O[C@@H]2COP(=O)(S)O[C@H]2[C@@H](OC)[C@H](n3ccc(=O)[nH]c3=O)O[C@@H]2COP(=O)(S)O[C@H]2[C@@H](OC)[C@H](n3ccc(=O)[nH]c3=O)O[C@@H]2COP(=O)(S)O[C@H]2[C@@H](OC)[C@H](n3cnc4c(=O)[nH]c(N)nc43)O[C@@H]2COP(=O)(S)O[C@H]2[C@@H](OC)[C@H](n3cnc4c(=O)[nH]c(N)nc43)O[C@@H]2COP(=O)(S)OCCCCCCNC(=O)c2cc(Cl)c(C(=O)O)c(-c3c4cc(Cl)c(=O)c(Cl)c-4oc4c(Cl)c(O)c(Cl)cc34)c2Cl)O[C@H]1n1ccc(=O)[nH]c1=O (some centres not stated) | 0.019 |
| Cc1cn([C@H]2C[C@H](OP(=O)(O)OC[C@H]3O[C@@H](n4cc(C)c(=O)[nH]c4=O)C[C@@H]3OP(=O)(O)OC[C@H]3O[C@@H](n4cc(C)c(=O)[nH]c4=O)C[C@@H]3OP(=O)(O)OC[C@H]3O[C@@H](n4cnc5c(=O)[nH]c(N)nc54)C[C@@H]3OP(=O)(O)OC[C@H]3O[C@@H](n4cc(C)c(=O)[nH]c4=O)C[C@@H]3OP(=O)(O)OC[C@H]3O[C@@H](n4cnc5c(=O)[nH]c(N)nc54)C[C@@H]3OP(=O)(O)OC[C@H]3O[C@@H](n4cc(C)c(=O)[nH]c4=O)C[C@@H]3OP(=O)(O)OCCCCCCNC(=S)Nc3ccc(-c4c5cc(Br)c(=O)c(Br)c-5oc5c(Br)c(O)c(Br)cc45)c(C(=O)O)c3)[C@@H](COP(=O)(O)O[C@H]3C[C@H](n4cc(C)c(=O)[nH]c4=O)O[C@@H]3COP(=O)(O)O[C@H]3C[C@H](n4cc(C)c(=O)[nH]c4=O)O[C@@H]3COP(=O)(O)O[C@H]3C[C@H](n4cnc5c(=O)[nH]c(N)nc54)O[C@@H]3COP(=O)(O)O[C@H]3C[C@H](n4cnc5c(=O)[nH]c(N)nc54)O[C@@H]3CO)O2)c(=O)[nH]c1=O | 0.05 |
| Cc1cn([C@H]2C[C@H](OP(=O)(O)OC[C@H]3O[C@@H](n4cc(C)c(=O)[nH]c4=O)C[C@@H]3OP(=O)(O)OC[C@H]3O[C@@H](n4cc(C)c(=O)[nH]c4=O)C[C@@H]3OP(=O)(O)OC[C@H]3O[C@@H](n4cnc5c(=O)[nH]c(N)nc54)C[C@@H]3OP(=O)(O)OC[C@H]3O[C@@H](n4cc(C)c(=O)[nH]c4=O)C[C@@H]3OP(=O)(O)OC[C@H]3O[C@@H](n4cnc5c(=O)[nH]c(N)nc54)C[C@@H]3OP(=O)(O)OC[C@H]3O[C@@H](n4cc(C)c(=O)[nH]c4=O)C[C@@H]3O)[C@@H](COP(=O)(O)O[C@H]3C[C@H](n4cc(C)c(=O)[nH]c4=O)O[C@@H]3COP(=O)(O)O[C@H]3C[C@H](n4cc(C)c(=O)[nH]c4=O)O[C@@H]3COP(=O)(O)O[C@H]3C[C@H](n4cnc5c(=O)[nH]c(N)nc54)O[C@@H]3COP(=O)(O)O[C@H]3C[C@H](n4cnc5c(=O)[nH]c(N)nc54)O[C@@H]3COP(=O)(O)OCCCCCCNC(=O)c3cc(Cl)c(C(=O)O)c(-c4c5cc(Cl)c(=O)cc-5oc5cc(O)c(Cl)cc45)c3Cl)O2)c(=O)[nH]c1=O | 0.29 |
| Cc1cn([C@H]2C[C@H](OP(=O)(O)OC[C@H]3O[C@@H](n4cc(C)c(=O)[nH]c4=O)C[C@@H]3OP(=O)(O)OC[C@H]3O[C@@H](n4cc(C)c(=O)[nH]c4=O)C[C@@H]3OP(=O)(O)OC[C@H]3O[C@@H](n4cnc5c(=O)[nH]c(N)nc54)C[C@@H]3OP(=O)(O)OC[C@H]3O[C@@H](n4cc(C)c(=O)[nH]c4=O)C[C@@H]3OP(=O)(O)OC[C@H]3O[C@@H](n4cnc5c(=O)[nH]c(N)nc54)C[C@@H]3OP(=O)(O)OC[C@H]3O[C@@H](n4cc(C)c(=O)[nH]c4=O)C[C@@H]3OP(=O)(O)OCCCCCCNC(=S)Nc3ccc(-c4c5ccc(=O)cc-5oc5cc(O)ccc45)c(C(=O)O)c3)[C@@H](COP(=O)(O)O[C@H]3C[C@H](n4cc(C)c(=O)[nH]c4=O)O[C@@H]3COP(=O)(O)O[C@H]3C[C@H](n4cc(C)c(=O)[nH]c4=O)O[C@@H]3COP(=O)(O)O[C@H]3C[C@H](n4cnc5c(=O)[nH]c(N)nc54)O[C@@H]3COP(=O)(O)O[C@H]3C[C@H](n4cnc5c(=O)[nH]c(N)nc54)O[C@@H]3CO)O2)c(=O)[nH]c1=O | 0.315 |
